Measurements: patent publication US12264146B2, “Rho kinase inhibitor, method for preparing same and uses thereof” (BEIJING INCREASE INNOVATIVE DRUG CO., LTD., priority 2018, dated 2025)

Legend:
[1] = test system: endothelin (ET-1); test: Expression of endothelin (ET-1) in EA.Hy926 endothelial cells, detection kit; assay type: cell-based, human; details: EA.Hy926 cell supernatant, 48 h
Description: (§1) Commercially available cytokine kits were used to detect the effects of the compounds of the present application on vascular endothelium-derived contracting factor endothelin, vascular endothelium-derived relaxing factor endothelial nitric oxide synthase, nitric oxide, and prostacyclin factor. The detection was performed according to the kit instructions. When testing the effect of the compound of the present application on cytokines, a normal control group, a fasudil hydrochloride group, and high-, medium- and low-dose groups of the compounds of the present application were set up for testing. The fasudil hydrochloride used in this test example was purchased from Beijing Sihuan Pharmaceutical Co., Ltd., with the SFDA approval number of H20173349. The EA.Hy926 cells used in this test example were purchased from Suzhou Beina Chuanglian Biotechnology Co., Ltd.
EA.Hy926 cells were taken and inoculated in a 96-well plate at 5×10^4 cells/mL, 100 μL per well, and cultured adherently for 24 hours, then the test compound prepared in DMEM medium was added, and an equal volume of DMEM medium was added in the normal control group, then the cells were cultured at 37° C. for 48 hours, and then the cell supernatant was taken and placed in an EP tube, and centrifuged at 3000 r/min, 4° C. for 15 min. The resulting cell supernatant was transferred to a new EP tube, diluted twice with culture medium, and detected according to the instruction of the human endothelin detection kit (purchased from Wuhan Boster Biological Engineering Co., Ltd., batch number 59113731009), and the detection results were shown in Table 2.

[2] = test system: prostacyclin (PGI2); test: Expression of prostacyclin (PGI2) in EA.Hy926 endothelial cells, ELISA kit; assay type: cell-based; details: EA.Hy926 cell supernatant, 24 h
Description: as §1
EA.Hy926 cells were taken and inoculated in a 96-well plate at 5×10^4 cells/mL, 100 μL per well, and cultured adherently for 24 hours, then the test compound prepared in DMEM medium was added, and an equal volume of DMEM medium was added in the normal control group, then the cells were cultured at 37° C. for 24 hours, and then the cell supernatant was taken and placed in an EP tube, and centrifuged for 15 min at 3000 r/min and 15° C. The resulting supernatant was transferred to a new EP tube, and then the detection was performed according to the instruction of ELISA kit (purchased from Wuhan Elabscience Biotechnology Co., Ltd., Cat. No. E-EL-0022c), and the detection results were shown in Table 3.

## COc1ncc(F)c2c(S(=O)(=O)N3CCCNC[C@H]3C)cccc12 [Compound R-YK1605, (R)-4-fluoro-1-methoxy-5-((2-methyl-1,4-diazacycloheptan-1-yl)sulfonyl)isoquinoline]
[1]
  expression of endothelin in endothelial cells: Detection result of test compound at low dose (0.4 μM): 231.61 ± 9.70 pg/mL
  expression of endothelin in endothelial cells: Detection result of test compound at medium dose (2 μM): 228.98 ± 11.41 pg/mL
  expression of endothelin in endothelial cells: Detection result of test compound at high dose (10 μM): 259.53 ± 0.75 pg/mL
[2]
  expression of prostacyclin in endothelial cells: Detection result of test compound at low dose (0.4 μM): 280.07 ± 7.00 pg/mL
  expression of prostacyclin in endothelial cells: Detection result of test compound at medium dose (2 μM): 274.72 ± 32.60 pg/mL
  expression of prostacyclin in endothelial cells: Detection result of test compound at high dose (10 μM): 246.51 ± 1.44 pg/mL

## C[C@@H]1CNCCCN1S(=O)(=O)c1cccc2c(O)ncc(Cl)c12 [Compound R-YK1606, (R)-4-chloro-5-((2-methyl-1,4-diazacycloheptan-1-yl)sulfonyl)isoquinolin-1-ol]
[1]
  expression of endothelin in endothelial cells: Detection result of test compound at low dose (0.4 μM): 231.75 ± 32.51 pg/mL
  expression of endothelin in endothelial cells: Detection result of test compound at medium dose (2 μM): 242.62 ± 19.81 pg/mL
  expression of endothelin in endothelial cells: Detection result of test compound at high dose (10 μM): 231.03 ± 1.24 pg/mL
[2]
  expression of prostacyclin in endothelial cells: Detection result of test compound at low dose (0.4 μM): 292.24 ± 2.59 pg/mL
  expression of prostacyclin in endothelial cells: Detection result of test compound at medium dose (2 μM): 278.32 ± 46.42 pg/mL
  expression of prostacyclin in endothelial cells: Detection result of test compound at high dose (10 μM): 258.58 ± 7.57 pg/mL

## CCc1cnc(O)c2cccc(S(=O)(=O)N3CCCNC[C@H]3C)c12 [Compound R-YK1607, (R)-4-ethyl-5-((2-methyl-1,4-diazacycloheptan-1-yl)sulfonyl)isoquinolin-1-ol]
[1]
  expression of endothelin in endothelial cells: Detection result of test compound at low dose (0.4 μM): 248.20 ± 2.28 pg/mL
  expression of endothelin in endothelial cells: Detection result of test compound at medium dose (2 μM): 259.34 ± 7.96 pg/mL
  expression of endothelin in endothelial cells: Detection result of test compound at high dose (10 μM): 237.68 ± 3.34 pg/mL
[2]
  expression of prostacyclin in endothelial cells: Detection result of test compound at low dose (0.4 μM): 249.20 ± 2.28 pg/mL
  expression of prostacyclin in endothelial cells: Detection result of test compound at medium dose (2 μM): 257.34 ± 7.96 pg/mL
  expression of prostacyclin in endothelial cells: Detection result of test compound at high dose (10 μM): 241.68 ± 3.34 pg/mL

## O=S(=O)(c1cccc2cnccc12)N1CCCNC[C@H]1C1CC1 [Compound R-YK1608, (R)-5-((2-cyclopropyl-1,4-diazacycloheptan-1-yl)sulfonyl)isoquinoline]
[1]
  expression of endothelin in endothelial cells: Detection result of test compound at low dose (0.4 μM): 233.55 ± 0.12 pg/mL
  expression of endothelin in endothelial cells: Detection result of test compound at medium dose (2 μM): 229.98 ± 11.41 pg/mL
  expression of endothelin in endothelial cells: Detection result of test compound at high dose (10 μM): 239.23 ± 0.75 pg/mL
[2]
  expression of prostacyclin in endothelial cells: Detection result of test compound at low dose (0.4 μM): 257.55 ± 4.12 pg/mL
  expression of prostacyclin in endothelial cells: Detection result of test compound at medium dose (2 μM): 251.98 ± 10.41 pg/mL
  expression of prostacyclin in endothelial cells: Detection result of test compound at high dose (10 μM): 242.23 ± 1.75 pg/mL

## CC(C)[C@@H]1CNCCCN1S(=O)(=O)c1cccc2c(O)nccc12 [Compound R-YK1609, (R)-5-((2-isopropyl-1,4-diazacycloheptan-1-yl)sulfonyl)isoquinolin-1-ol]
[1]
  expression of endothelin in endothelial cells: Detection result of test compound at low dose (0.4 μM): 222.75 ± 52.53 pg/mL
  expression of endothelin in endothelial cells: Detection result of test compound at medium dose (2 μM): 232.72 ± 22.83 pg/mL
  expression of endothelin in endothelial cells: Detection result of test compound at high dose (10 μM): 242.03 ± 1.24 pg/mL
[2]
  expression of prostacyclin in endothelial cells: Detection result of test compound at low dose (0.4 μM): 259.20 ± 2.21 pg/mL
  expression of prostacyclin in endothelial cells: Detection result of test compound at medium dose (2 μM): 260.34 ± 7.94 pg/mL
  expression of prostacyclin in endothelial cells: Detection result of test compound at high dose (10 μM): 238.68 ± 3.34 pg/mL

## CC[C@@H]1CNCCCN1S(=O)(=O)c1cccc2c(OC)nccc12 [Compound R-YK1610, (R)-5-((2-ethyl-1,4-diazacycloheptan-1-yl)sulfonyl)-1-methoxyisoquinoline]
[1]
  expression of endothelin in endothelial cells: Detection result of test compound at low dose (0.4 μM): 259.20 ± 2.21 pg/mL
  expression of endothelin in endothelial cells: Detection result of test compound at medium dose (2 μM): 260.34 ± 7.94 pg/mL
  expression of endothelin in endothelial cells: Detection result of test compound at high dose (10 μM): 238.68 ± 3.34 pg/mL
[2]
  expression of prostacyclin in endothelial cells: Detection result of test compound at low dose (0.4 μM): 275.40 ± 9.89 pg/mL
  expression of prostacyclin in endothelial cells: Detection result of test compound at medium dose (2 μM): 267.35 ± 10.69 pg/mL
  expression of prostacyclin in endothelial cells: Detection result of test compound at high dose (10 μM): 253.44 ± 12.48 pg/mL
